The test system of one test is isolated rat left atria. As to the kind of experiment: Pharmacological activation of spontaneous tachycardic activity (STA): calcium-loading agents with or without 2-APB. Conditions: for ectopic activity / mechanical stability without 2-APB / effect on left atrial force of contraction: agent without 2-APB, at the concentration given; for T0.5R (time to 50% relaxation) / T0.9R (time to 90% relaxation) / TPT (time to peak tension) / SMA Rate: concentrations per footnote; for Force Post: mg force per g atrial wet weight following a 10 min exposure to the agent; for Force Pre: mg force per g atrial wet weight prior to exposure to the agent; for SMA Rate: spontaneous atrial mechanical events. Here is the method:
Male Sprague-Dawley rats (325-400 g) were anesthetized with intra-peritoneal pentobarbital (0.1 g/kg). Their right and left atria were isolated, superfused at 30° C. in Krebs-Henseleit buffer, and nearly isometric forces of contraction were measured from these muscles (Wolkowicz et al., 2002). 2-APB was prepared as a 150 mM dimethyl sulfoxide stock.
Left atria (n=8 per group) were paced at 3 Hz and (i) titrated with 0 to 30 nM isoproterenol (Ahlquist, 1970) or (ii) exposed to 3 μM forskolin (Laurenza et al., 1980). Left atrial force and frequency of contraction, the time to peak tension and relaxation times were recorded after a 3-5 min exposure to forskolin or to any concentration of isoproterenol. The 3 Hz pacing stimulus was interrupted at the end of these protocols to measure SMA. […]
Left atrial contraction and relaxation times were recorded at these five times, the pacing stimulus was stopped and rates of SMA were recorded. […] Atrial mechanical function was measured at these four times; the pacing stimulus then was stopped and rates of SMA were recorded.
Left atria (n=6 per group) were paced at 3 Hz, titrated with 0 to 300 nM (−)BayK 8644 ([…]-1,4-Dihydro-2,6-dimethyl-5-nitro-4-[2-(trifluormethyl)phenyl]-3-pyridinecarboxylic acid methyl ester; Franckowiak et al. 1985) or FPL-64176 (2,5-Dimethyl-4-[2-(phenylmethyl)benzoyl]-1H-pyrrole-3-carboxlic acid methyl ester); Zheng et al., 1991) and their mechanical function and rates of SMA were recorded after a 5 min exposure to any concentration of slow calcium channel activator.
Atrial mechanical function was recorded at this time; the pacing stimulus then was stopped and rates of SMA were recorded. […]
Left atria (n=7) were paced at 3 Hz, treated with 120 μM ouabain (Illanes and Marshall, 1964), and any change in mechanical function was recorded at a new steady state, ˜10 min later. […]

For test [1], the system named is rat left atria. Kind of test: Reversal or prevention of 2-APB-induced SMA in superfused rat left atria. The settings on record: for effect on 2-APB-induced sporadic ectopic activity (SMA): titration after appearance of SMA, absence of pacing. Here is the method:
(A) Titration curve of ranolazine reversal of SMA in superfused left atrial appendage. Superfused appendages (n=7) were treated with 2-APB and following the appearance of SMA they were titrated with increasing concentrations of ranolazine for 3-5 min at any concentration. Rates of SMA in the absence of pacing were recorded. (B) Typical raw mechanical data for an appendage treated with 2-APB and then with 0, 10 or 80 μM ranolazine. All data are in the absence of pacing. […]
To test whether an anion transport inhibitor affected SMA, atria (n=7) were paced at 0.1 Hz in KH and exposed to 15 μM 2-APB. Following the appearance of SMA, they were titrated with 100 to 400 μM DIDS for 3 to 5 min at each concentration. Whether SMA occurred at the end of each titration period was recorded.
In these experiments, a 2-APB model system was used to simulate abnormal automaticity. Specifically, paced (0.1 Hz) superfused left atria were treated with 2-APB (20 μM) and the pacing stimulus was stopped after the appearance of SMA. SKF-96365 (25 μM) was then added to the superfusate and the effect on SMA was measured.
Additional experiments determined the concentration-dependence of SKF-96365 inhibtion of SMA. These experiments were performed as described above except that various concentrations of SKF-96365 were added to the left atrial superfusate (about 10-65 μM).
In these experiments, a 2-APB model system was used to simulate abnormal automaticity. Specifically, superfused left atria were exposed to 0 or to 50 μM SKF-96365 for 10 min. Following this pre-incubation, muscles were titrated with increasing concentrations of 2-APB (0-30 μM) and the rate of SMA was measured about 10 min later in the absence of pacing.

A further test relates to rat right atria. As to the kind of experiment: Right atrial spontaneous contraction frequency. The settings on record: 30 nM isoproterenol for 5 min. The method, then: (§1) Left atria (n=9) were paced at 0.1 Hz, treated with 300 nM BayK 8644 for 5 min, then with 20 μM 2-APB for 10 min, and the pacing stimulus was stopped. These preparations then were incubated with six increasing concentrations of zatebradine (10-100 μM) for 3-5 min at each concentration, and rates of SMA were recorded. Untreated right atria (n=9) also were titrated with zatebradine and its effect on contraction frequency was recorded.
(§2) To test whether zatebradine affects the SMA occurring in the presence of 2-APB and isoproterenol, left atria (n=7) were paced at 0.1 Hz, treated with 30 nM isoproterenol for 5 min, then with 20 μM 2-APB for 10 min, and the pacing stimulus was stopped. Rates of SMA were recorded, these left atria were exposed to 70 μM zatebradine for 10 min, and rates of SMA were recorded again. A group of right atria (n=7) also were exposed to 30 nM isoproterenol for 5 min and then to 70 μM zatebradine for 10 min. Right atrial contraction frequency was recorded at these two times.
(§3) To test whether ZD-7288, an If inhibitor structurally unrelated to zatebradine (Baruscotti et al., 2005; Sanders et al., 2006) affects the SMA occurring in the presence of 2-APB and BayK 8644, rat left atria (n=7) were treated with 300 nM BayK 8644 for 5 min, then with 20 μM 2-APB for 10 min, and the rates of ectopic activity were recorded. These atria then were incubated with six increasing concentrations of ZD-7288 (10-100 μM) for 3-5 min at each concentration, and the rates of SMA were recorded. Right atria (n=7) were titrated similarly with ZD-7288 (0-100 μM) and the change in their contraction frequency was recorded.

The subject of test [2] is rat left atria. Kind of test: Suppression of STA induced by 2-APB plus BayK 8644 or isoproterenol in left atria. Conditions: data not shown. Here is the method:
3 Hz-paced left atria (n=9 per group) were superfused (i) in Krebs-Henseleit alone or (ii) they were treated with 20 μM 2-APB for 10 min, (iii) with 300 nM BayK 8644 for 10 min and with 20 μM 2-APB for 10 min, or (iv) they were treated with 300 nM BayK 8644 and 20 μM 2-APB for 10 min, then with 70 μM zatebradine (3-[3-[[2-(3,4-Dimethoxyphenyl)ethyl]methyl amino]propyl]-1,3,4,5-tetrahydro-7,8,-dimethoxy-2H-3-benzazepin-2-one hydrochloride) for 10 min (Baruscotti et al., 2005). Pacing was interrupted at these times and rates of SMA were recorded.
as §1
To test whether zatebradine affects left atrial force of contraction, two groups of left atria (n=9 per group) were paced at 3 Hz and treated with 300 nM BayK 8644. Five minutes later one group was incubated with six increasing concentrations of zatebradine (10-100 μM) for 3-5 min at each concentration, and forces of contraction were recorded. A second group was treated with BayK 8644 but not zatebradine, and forces of contraction were recorded at corresponding times.
as §2, §3
In these experiments, a 2-APB model system was used to simulate tachycardic abnormal automaticity. Specifically, superfused left atria were treated sequentially with 300 nM BayK 8644, an activator of voltage-dependent calcium entry, which loads myocytes with calcium, and then with 2-APB (20 μM) to activate the putative myocyte system for abnormal automaticity. […] SKF-96365 (10 μM) was added to the superfusate. SKF-96365 reversed STA in these left atria within 2-3 min and the muscle became quiescent in the absence of pacing (FIG. 34, “Rest”).
Additional experiments determined the concentration-dependence of SKF-96365 inhibition of STA. These experiments were performed as described above except that various concentrations of SKF-96365 were added to the left atrial superfusate (about 10-70 μM). Exposing left atria to various concentrations of SKF-96365 reversed STA (FIG. 35).

The test system of test [3] is rat left atria. Conditions: 25 nM ATX II.

Entries after “also recorded” stand apart in the source; their conditions may differ. Marks after values point to notes of the source that are not given here. Some results are limits rather than exact numbers.

For `COC(=O)C1=C(C)NC(C)=C([N+](=O)[O-])[C@H]1c1ccccc1C(F)(F)F` [BayK 8644, (45)-1,4-Dihydro-2,6-dimethyl-5-nitro-4-[2-(trifluormethyl)phenyl]-3-pyridinecarboxylic acid methyl ester], in the test with isolated rat left atria, the “ectopic activity / mechanical stability without 2-APB” value is “does not produce ectopic activity”, the “effect on left atrial force of contraction” value is “increases their force of contraction”, the “T0.5R (time to 50% relaxation)” value stood at 35.2 msc and the “T0.9R (time to 90% relaxation)” value is 73.2 msc. For the same molecule, in the test on isolated rat left atria, the “TPT (time to peak tension)” value came to 54.1 msc, the “Force Post” value is recorded as 83* mg/gww, the “Force Pre” value came to 33 mg/gww and the “SMA Rate” value was 0 SMEs per minute.
As to `O=S(=O)(O)c1cc(N=C=S)ccc1C=Cc1ccc(N=C=S)cc1S(=O)(=O)O` [DIDS, 4,4′-diisothiocyanatostilbene-2,2′-disulfonic acid], in the test on rat left atria [1] (15 μM 2-APB, 0.1 Hz, 3 to 5 min at each DIDS concentration), the “DIDS concentration that reversed SMA completely” value was greater than 300 µM.
For `COC(=O)c1c(C)[nH]c(C)c1C(=O)c1ccccc1Cc1ccccc1` [FPL-64176, 2,5-Dimethyl-4-[2-(phenylmethyl)benzoyl]-1H-pyrrole-3-carboxlic acid methyl ester], in the test with isolated rat left atria, the “ectopic activity / mechanical stability without 2-APB” value was “does not produce ectopic activity”, the “effect on left atrial force of contraction” value is “increases their force of contraction”, the “T0.5R (time to 50% relaxation)” value is listed as 35.3 msc and the “T0.9R (time to 90% relaxation)” value is listed as 73.3 msc. In addition, in the test with isolated rat left atria, the “TPT (time to peak tension)” value is reported as 52.8 msc, the “Force Post” value is 68* mg/gww, the “Force Pre” value was determined as 30 mg/gww and the “SMA Rate” value is on record as 0 SMEs per minute.
As to `O=C(NCC1CCCCN1)c1cc(OCC(F)(F)F)ccc1OCC(F)(F)F` (stereo not shown) [flecainide], the “effect on 2-APB-induced sporadic ectopic activity (SMA)” value (from here on “effect … (SMA)”) with rat left atria [1] is given as “suppress this arrhythmic activity”.
On to `C=C[C@@]1(C)CC(=O)[C@]2(O)[C@@]3(C)[C@@H](O)CCC(C)(C)[C@@H]3[C@H](O)[C@H](OC(C)=O)[C@@]2(C)O1` [forskolin], for which, in the test with isolated rat left atria, the “T0.5R (time to 50% relaxation)” value is recorded as 28.7^‡ msc, the “T0.9R (time to 90% relaxation)” value is on record as 58.4^‡ msc, the “TPT (time to peak tension)” value is listed as 44.6* msc and the “Force Post” value is on record as 62* mg/gww. Besides, in the test with isolated rat left atria, the “Force Pre” value came out at 21 mg/gww and the “SMA Rate” value worked out at 0 SMEs per minute.
On to `CC(C)NCC(O)c1ccc(O)c(O)c1` (stereo not shown) [isoproterenol], for which, in the test on isolated rat left atria (22 μM 2-APB-treated appendage plus 30 nM isoproterenol, 30° C.), the “rate of spontaneous tachycardic activity in the absence of pacing” value was roughly 230 contractions/min. In addition, in the test with isolated rat left atria, the “ectopic activity / mechanical stability without 2-APB” value was “does not produce ectopic activity”, the “effect on left atrial force of contraction” value is “increases their force of contraction”, the “T0.5R (time to 50% relaxation)” value is recorded as 29.3^‡ msc and the “T0.9R (time to 90% relaxation)” value was 58.7^‡ msc. Further, in the test with isolated rat left atria, the “TPT (time to peak tension)” value is on record as 45.0^‡ msc, the “Force Post” value is reported as 104* mg/gww, the “Force Pre” value stood at 31 mg/gww and the “SMA Rate” value was found to be 0 SMEs per minute. The “right atrial contraction frequency” value in the test on rat right atria came out at 276±11.4 contractions/min.
As to `CCN(CC)CC(=O)Nc1c(C)cccc1C` [lidocaine], the “effect … (SMA)” value in the test on rat left atria [1] is on record as “suppress this arrhythmic activity”.
As for `C[C@@H]1O[C@@H](O[C@H]2C[C@@H](O)[C@]3(CO)[C@H]4[C@H](O)C[C@]5(C)[C@@H](C6=CC(=O)OC6)CC[C@]5(O)[C@@H]4CC[C@]3(O)C2)[C@H](O)[C@H](O)[C@H]1O` [ouabain], in the test on isolated rat left atria, the “ectopic activity / mechanical stability without 2-APB” value is recorded as “does not produce ectopic activity; also recorded: does not affect their mechanical stability” and the “effect on left atrial force of contraction” value was “increases their force of contraction; also recorded: doubles their force of contraction”.
For `COc1ccccc1OCC(O)CN1CCN(CC(=O)Nc2c(C)cccc2C)CC1` (stereo not shown) [ranolazine, N-(2,6-dimethylphenyl)-2-[4-[2-hydroxy-3-(2-methoxyphenoxy)propyl]piperazin-1-yl]acetamide], the “effect … (SMA)” value in the test on rat left atria [1] is “prevent the sporadic ectopic activity”; in the test on rat left atria [1] (listed as Ranolazine), “blocks ectopic activity”. The “effect on tachycardic activity with high calcium loads” value in the test with rat left atria [2] is “suppresses, but does not completely prevent”.
For `COc1ccc(CCN(C)CCCC(C#N)(c2ccc(OC)c(OC)c2)C(C)C)cc1OC` (stereo not shown) [verapamil], in the test on rat left atria [3] (10 μM verapamil for 5 min, expanded scale), the “triggered events after exposure to verapamil” value is “continued presence of triggered events”. In the test with rat left atria [3] (1 Hz-paced, ~5 min at each concentration), the “effect on left atrial force of contraction / mechanical performance (titration)” value is listed as “markedly decreased contractile force”. Also, the “effect on the rate of triggered activity (titration)” value in the test with rat left atria [3] (verapamil 2 to 20 μM, ~5 min at each concentration) is given as “did not affect the rate of triggered activity”.
Turning to Anemonia sulcata Toxin II [ATX II], in the test with rat left atria [3] (left atria paced at 1 Hz), the “induction of triggered activity (contractile doublets)” value is on record as “triggered activity is induced”.
On to ryanodine, for which, in the test on isolated rat left atria, the “ectopic activity / mechanical stability without 2-APB” value is listed as “no STA occurs” and the “effect on left atrial force of contraction” value is recorded as “Time-dependent decreases in force of contraction”.

(Values after patent US20110160266A1, “Novel Anti-Arrhythmia Agent” (THE UAB RESEARCH FOUNDATION, priority 2008, published 2011).)
